Among the data in patent US10442804B2, “Compounds for the treatment of hepatitis B virus infection” (Gilead Sciences, Inc., priority 2017, dated 2019) are EC50 and CC50 values, retold here.

For series [1], the system named is HBV-infected NTCP-HepG2 cells, secreted HBsAg. Nature of the series: microbe, parasite or virus in culture. Conditions: Hepatitis B virus, 120 h, secreted HBsAg in supernatant after 5 days; geometric mean of minimum four determinations; read-out: NTCP HBsAg EC50. The format is cell-based, hepatitis B virus (genotype D, AD38-derived). An outline of the steps:
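NTCP-HepG2 cells were infected with genotype D HBV at 4000 genome equivalents/cell, then seeded 4 days post-infection with serially diluted compounds (1% DMSO) for 5 days. Supernatant HBsAg was measured by chemiluminescent MSD immunoassay. EC50 from four-parameter fit, geometric mean of ≥4 determinations.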

Another series in a line: MT-4 cytotoxicity assay. It is filed as cell-based, human. Conditions: human, five days, Cell Titer Glo luminescence; read-out: MT-4 CC50.

Where only a bound is given, the exact number is not on record here.

Take `CCOc1cc2c(cc1OCCCOC)[C@H]1CCC(C)(C)N1n1cc(C(=O)O)c(=O)cc1-2` [Example 21, (R)-11-ethoxy-12-(3-methoxypropoxy)-3,3-dimethyl-8-oxo-2,3,8,13b-tetrahydro-1H-pyrido[2,1-a]pyrrolo[1,2-c]phthalazine-7-carboxylic acid]: in series [1], the EC50 was 0.0075 µM. Also, the CC50 at 5 days in the series “MT-4 cytotoxicity assay” is above 10 µM.

With `COCCCOc1cc2c(cc1Cl)-c1cc(=O)c(C(=O)O)cn1N1[C@@H]2CC[C@@H]1C` (single isomer, unassigned) [Example 10], the EC50 in series [1] came out at 0.0057 µM. For the same molecule, in “MT-4 cytotoxicity assay”, the half-maximal cytotoxic concentration (CC50) at 5 days is above 10 µM.

For `COCCCOc1cc2c(cc1CO)-c1cc(=O)c(C(=O)O)cn1N1[C@@H]2CCC1(C)C` [Compound 113, (R)-11-(hydroxymethyl)-12-(3-methoxypropoxy)-3,3-dimethyl-8-oxo-2,3,8,13b-tetrahydro-1H-pyrido[2,1-a]pyrrolo[1,2-c]phthalazine-7-carboxylic acid], the EC50 in series [1] was found to be 0.0227 µM. Also, the CC50 at 5 days in “MT-4 cytotoxicity assay” is above 10 µM.

Regarding `COCCCOc1cc2c(cc1C1COC1)-c1cc(=O)c(C(=O)O)cn1N1[C@@H]2CCC1(C)C` [Example 77, (R)-12-(3-methoxypropoxy)-3,3-dimethyl-11-(oxetan-3-yl)-8-oxo-2,3,8,13b-tetrahydro-1H-pyrido[2,1-a]pyrrolo[1,2-c]phthalazine-7-carboxylic acid], in series [1], the EC50 came out at 0.0125 µM. Also, the CC50 at 5 days in “MT-4 cytotoxicity assay” was above 10 µM.

Take `COc1cc2c(cc1-c1cnn(C(F)F)c1)[C@H]1CCC(C)(C)N1n1cc(C(=O)O)c(=O)cc1-2` [Example 44, (R)-12-(1-(Difluoromethyl)-1H-pyrazol-4-yl)-11-methoxy-3,3-dimethyl-8-oxo-2,3,8,13b-tetrahydro-1H-pyrido[2,1-a]pyrrolo[1,2-c]phthalazine-7-carboxylic acid]: in series [1], the EC50 turned out to be 0.0055 µM. In addition, the CC50 at 5 days in “MT-4 cytotoxicity assay” was 3 µM.

Turning to `COCCCOc1cc2c(cc1S(C)(=O)=O)-c1cc(=O)c(C(=O)O)cn1N1[C@@H]2CCC1(C)C` [Example 69, (R)-12-(3-methoxypropoxy)-3,3-dimethyl-11-(methylsulfonyl)-8-oxo-2,3,8,13b-tetrahydro-1H-pyrido[2,1-a]pyrrolo[1,2-c]phthalazine-7-carboxylic acid], in series [1], the EC50 was 0.052 µM. In addition, the CC50 at 5 days in “MT-4 cytotoxicity assay” is above 10 µM.

For `COCCCOc1cc2c(cc1Cl)-c1cc(=O)c(C(=O)O)cn1N1[C@@H](C)CC[C@@H]21` (single isomer, unassigned) [Example 8], the EC50 in series [1] came out at 0.2 µM. Besides, the CC50 at 5 days in the series “MT-4 cytotoxicity assay” is above 10 µM.

For the molecule `CC(C)(C)OC(=O)[C@H]1CCN(c2cc3c(cc2OC(F)(F)F)-c2cc(=O)c(C(=O)O)cn2N2[C@@H]3CCC2(C)C)C1` [Compound 115, (R)-12-((S)-3-(tert-butoxycarbonyl)pyrrolidin-1-yl)-3,3-dimethyl-8-oxo-11-(trifluoromethoxy)-2,3,8,13b-tetrahydro-1H-pyrido[2,1-a]pyrrolo[1,2-c]phthalazine-7-carboxylic acid], the EC50 in series [1] came to 0.0029 µM. In “MT-4 cytotoxicity assay”, the CC50 at 5 days amounted to 8.3 µM.

For the molecule `COCCCOc1cc2c(cc1Cl)-c1cc(=O)c(C(=O)O)cn1N1CCC(C)(C)[C@H]21` (single isomer, unassigned) [Example 47], the EC50 in series [1] was 0.016 µM. The CC50 at 5 days in “MT-4 cytotoxicity assay” was 1.7 µM.

Regarding `COc1cc2c(cc1Oc1ncccn1)[C@H]1CCC(C)(C)N1n1cc(C(=O)O)c(=O)cc1-2` [Example 41, (R)-11-methoxy-3,3-dimethyl-8-oxo-12-(pyrimidin-2-yloxy)-2,3,8,13b-tetrahydro-1H-pyrido[2,1-a]pyrrolo[1,2-c]phthalazine-7-carboxylic acid], the EC50 in series [1] worked out at 0.12 µM. For the same molecule, in the series “MT-4 cytotoxicity assay”, the CC50 at 5 days was above 10 µM.

As to `COc1cc2c(cc1OCCCOc1ccccc1)[C@H]1CCC(C)(C)N1n1cc(C(=O)O)c(=O)cc1-2` [Example 61], the EC50 in series [1] is 0.00094 µM. In addition, the CC50 at 5 days in the series “MT-4 cytotoxicity assay” amounted to 6 µM.

Turning to `COCCCOc1cc2c(cc1OC(F)F)-c1cc(=O)c(C(=O)O)cn1N1C2CCC1(C)C` (stereo not shown) [Example 18, 11-(difluoromethoxy)-12-(3-methoxypropoxy)-3,3-dimethyl-8-oxo-2,3,8,13b-tetrahydro-1H-pyrido[2,1-a]pyrrolo[1,2-c]phthalazine-7-carboxylic acid], in series [1], the EC50 worked out at 0.004 µM. Besides, the CC50 at 5 days in the series “MT-4 cytotoxicity assay” is above 10 µM.

Consider `COCCCOc1cc2c(cc1OC)-c1cc(=O)c(C(=O)O)cn1N1[C@H]2CCC1(C)C` [Example 15, (S)-11-methoxy-12-(3-methoxypropoxy)-3,3-dimethyl-8-oxo-2,3,8,13b-tetrahydro-1H-pyrido[2,1-a]pyrrolo[1,2-c]phthalazine-7-carboxylic acid], for which the EC50 in series [1] is 0.35 µM. For the same molecule, in “MT-4 cytotoxicity assay”, the CC50 at 5 days is above 10 µM.

For `COCc1cc2c(cc1OCCCOC(=O)NC1(C(F)F)CC1)[C@H]1CCC(C)(C)N1n1cc(C(=O)O)c(=O)cc1-2` [Example 88, (R)-12-(3-(((1-(Difluoromethyl)cyclopropyl)carbamoyl)oxy)propoxy)-11-(methoxymethyl)-3,3-dimethyl-8-oxo-2,3,8,13b-tetrahydro-H-pyrido[2,1-a]pyrrolo[1,2-c]phthalazine-7-carboxylic acid], the EC50 in series [1] is 0.0054 µM. Moreover, the cytotoxic concentration (CC50) at 5 days in “MT-4 cytotoxicity assay” was above 10 µM.

As to `COCCCOc1cc2c(cc1Cl)-c1cc(=O)c(C(=O)O)cn1[C@@H]1[C@H]2CCC1(C)C` (single isomer, unassigned) [Example 34], in series [1], the EC50 is 0.22 µM. For the same molecule, in “MT-4 cytotoxicity assay”, the CC50 at 5 days was above 10 µM.

`COc1cc2c(cc1OCCC(C)(C)OC)[C@H]1CCC(C)(C)N1n1cc(C(=O)O)c(=O)cc1-2` [Example 64, (R)-11-methoxy-12-(3-methoxy-3-methylbutoxy)-3,3-dimethyl-8-oxo-2,3,8,13b-tetrahydro-1H-pyrido[2,1-a]pyrrolo[1,2-c]phthalazine-7-carboxylic acid]: the EC50 in series [1] was determined as 0.00084 µM. The CC50 at 5 days in the series “MT-4 cytotoxicity assay” is above 10 µM.

As for `COCCCOc1cc2c(cc1OC(C)(C)C)-c1cc(=O)c(C(=O)O)cn1N1[C@H]2CCC1(C)C` [Example 26, (S)-11-(tert-butoxy)-12-(3-methoxypropoxy)-3,3-dimethyl-8-oxo-2,3,8,13b-tetrahydro-1H-pyrido[2,1-a]pyrrolo[1,2-c]phthalazine-7-carboxylic acid], the EC50 in series [1] is above 1 µM. For the same molecule, the cytotoxic concentration (CC50) at 5 days in “MT-4 cytotoxicity assay” is above 10 µM.
